Laboratory results published in patent US11147796B2, “Agent for preventing or ameliorating hearing impairment” (Tohoku University, priority 2017, dated 2021).

Compared with `Cc1ccc2[nH]cc(C(CC(=O)c3ccc(F)cc3F)C(=O)O)c2c1` (centres unmarked) [Compound (3-3), 4-(2,4-difluorophenyl)-2-(5-methyl-1H-indol-3-yl)-4-oxo-butanoic Acid], `O=C(CC(C(=O)O)c1c[nH]c2ccc(Cl)cc12)c1ccc(F)cc1F` (centres unmarked) [Compound (3-2), 2-(5-chloro-1H-indol-3-yl)-4-(2,4-difluorophenyl)-4-oxo-butanoic Acid] is higher in melting point: 200 to 202 °C for the first, 236 to 239 °C for the second.

Compared with `CCCOc1ccc2[nH]cc(CC(=O)O)c2c1` [compound #38, 5-(1-Propoxy)-3-indoleacetic Acid], `CCCCOc1ccc2[nH]cc(CC(=O)O)c2c1` [compound #39, 5-(1-Butoxy)-3-indoleacetic Acid] is higher in melting point: 133.6 to 136.8 °C for the first, 137.8 to 141.1 °C for the second.

First: O=C(CC(C(=O)O)c1c[nH]c2cc(F)ccc12)c1ccc(F)cc1F (centres unmarked) [Compound (4-1), 4-(2,4-difluorophenyl)-2-(6-fluoro-1H-indol-3-yl)-4-oxo-butanoic Acid]
Second: O=C(CC(C(=O)O)c1c[nH]c2ccc(F)cc12)c1ccc(F)cc1F (centres unmarked) [Compound (3-1), 4-(2,4-difluorophenyl)-2-(5-fluoro-1H-indol-3-yl)-4-oxo-butanoic Acid]
The melting point of the first is higher: 210 to 214 °C for the first, 207 to 208 °C for the second.

First: CCOc1ccc2[nH]cc(CC(=O)O)c2c1 [compound #37, 5-Ethoxy-3-indoleacetic Acid]
Second: CCCCOc1ccc2cccc(CC(=O)O)c2c1 [compound #33, α-(7-Butoxy-1-naphthalenyl)-acetic Acid]
The melting point of the first is lower: 86 to 92.7 °C for the first, 102 to 104 °C for the second.

First: Cn1cc(C(CC(=O)c2ccc(F)cc2F)C(=O)O)c2ccccc21 (centres unmarked) [Compound (6-1), 4-(2,4-difluorophenyl)-2-(1-methyl-1H-indol-3-yl)-4-oxo-butanoic Acid]
Second: O=C(CC(C(=O)O)c1c[nH]c2c(Cl)cccc12)c1ccc(F)cc1F (centres unmarked) [Compound (5-1), 2-(7-chloro-1H-indol-3-yl)-4-(2,4-difluorophenyl)-4-oxo-butanoic Acid]
The melting point of the first is lower: 192 to 193 °C for the first, 225 to 227 °C for the second.

First: O=C(CC(C(=O)O)c1c[nH]c2cccc(Cl)c12)c1ccc(F)cc1F (centres unmarked) [Compound (2-1), 2-(4-chloro-1H-indol-3-yl)-4-(2,4-difluorophenyl)-4-oxo-butanoic Acid]
Second: COc1cccc2c(C(CC(=O)c3ccc(F)cc3F)C(=O)O)c[nH]c12 (centres unmarked) [Compound (5-2), 4-(2,4-difluorophenyl)-2-(7-methoxy-1H-indol-3-yl)-4-oxo-butanoic Acid]
The melting point of the first is higher: 203 to 204 °C for the first, 181 to 183 °C for the second.

First: CCCn1cc(C(CC(=O)c2ccc(C)cc2C)C(=O)O)c2ccccc21 (centres unmarked) [compound 6, 4-(2,4-Dimethylphenyl)-2-(1-propyl-1H-indol-3-yl)-4-oxo-butanoic Acid]
Second: O=C(CC(C(=O)O)c1c[nH]c2ccccc12)c1ccccc1 (centres unmarked) [compound #20, 4-Phenyl-2-(1H-indol-3-yl)-4-oxo-butanoic Acid]
The melting point of the first is lower: 139 to 141 °C for the first, 149 to 150 °C for the second.

Compared with `COc1ccc2[nH]cc(C(CC(=O)c3ccc(F)cc3F)C(=O)O)c2c1` (centres unmarked) [Compound (3-4), 4-(2,4-difluorophenyl)-2-(5-methoxy-1H-indol-3-yl)-4-oxo-butanoic Acid], `O=C(CC(C(=O)O)c1c[nH]c2cc(OCc3ccccc3)ccc12)c1ccc(F)cc1F` (centres unmarked) [Compound (4-2), 2-(6-benzyloxy-1H-indol-3-yl)-4-(2,4-difluorophenyl)-4-oxo-butanoic Acid] is lower in melting point: 205 to 206 °C for the first, 177 to 178 °C for the second.

For `CCCCCOc1ccc2cccc(CC(=O)O)c2c1` [compound #34, α-(7-Pentoxy-1-naphthalenyl)-acetic Acid], the melting point was 104 to 106 °C.
